Measured values taken from patent US10670605B2, “Cysteine reactive probes and uses thereof” (The Scripps Research Institute, priority 2015, dated 2020).

How the values were obtained:
Test in all cases: Competitive isoTOP-ABPP, cell lysates;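 for isoTOP-ABPP reactivity profile ratio, O00170 C122: Heavy/light ratio DMSO over fragment-treated so higher means more cysteine engagement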
Format in all cases: binding
[1] = biological target: T1, AIP C122 (O00170) (Homo sapiens, UniProt O00170);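 for isoTOP-ABPP reactivity profile ratio, O00170 C122: Heavy/light ratio DMSO over fragment-treated so higher means more cysteine engagement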
T1 sequence (O00170 1-330): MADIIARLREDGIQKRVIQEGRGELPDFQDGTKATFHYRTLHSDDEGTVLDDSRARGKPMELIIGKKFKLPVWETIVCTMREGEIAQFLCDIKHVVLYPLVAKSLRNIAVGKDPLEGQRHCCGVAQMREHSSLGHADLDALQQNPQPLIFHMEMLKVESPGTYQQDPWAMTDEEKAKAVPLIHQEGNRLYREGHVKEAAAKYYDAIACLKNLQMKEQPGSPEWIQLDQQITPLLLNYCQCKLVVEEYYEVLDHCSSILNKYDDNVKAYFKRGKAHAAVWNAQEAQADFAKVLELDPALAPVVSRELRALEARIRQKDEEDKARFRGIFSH

[2] = biological target: IDH1 C269 (O75874) (Homo sapiens, UniProt O75874)
Chain of IDH1 C269 (O75874) (O75874 whole entry): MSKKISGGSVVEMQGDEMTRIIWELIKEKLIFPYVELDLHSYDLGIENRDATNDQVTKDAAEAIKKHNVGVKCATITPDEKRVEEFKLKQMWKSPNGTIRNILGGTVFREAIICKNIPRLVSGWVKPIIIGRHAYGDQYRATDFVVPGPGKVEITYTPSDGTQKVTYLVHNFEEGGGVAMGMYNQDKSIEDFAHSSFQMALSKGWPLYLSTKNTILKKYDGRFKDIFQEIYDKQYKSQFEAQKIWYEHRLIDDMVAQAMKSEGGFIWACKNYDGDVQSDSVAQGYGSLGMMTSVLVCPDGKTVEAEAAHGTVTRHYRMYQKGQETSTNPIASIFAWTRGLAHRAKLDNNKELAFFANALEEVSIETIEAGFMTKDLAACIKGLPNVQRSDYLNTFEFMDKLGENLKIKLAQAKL

[3] = biological target: T2, PCK2 C306 (Q16822) (Homo sapiens, UniProt Q16822); settings: for isoTOP-ABPP ratio, Q16822_C306: 500 μM, invitro
T2 sequence (Q16822 33-640): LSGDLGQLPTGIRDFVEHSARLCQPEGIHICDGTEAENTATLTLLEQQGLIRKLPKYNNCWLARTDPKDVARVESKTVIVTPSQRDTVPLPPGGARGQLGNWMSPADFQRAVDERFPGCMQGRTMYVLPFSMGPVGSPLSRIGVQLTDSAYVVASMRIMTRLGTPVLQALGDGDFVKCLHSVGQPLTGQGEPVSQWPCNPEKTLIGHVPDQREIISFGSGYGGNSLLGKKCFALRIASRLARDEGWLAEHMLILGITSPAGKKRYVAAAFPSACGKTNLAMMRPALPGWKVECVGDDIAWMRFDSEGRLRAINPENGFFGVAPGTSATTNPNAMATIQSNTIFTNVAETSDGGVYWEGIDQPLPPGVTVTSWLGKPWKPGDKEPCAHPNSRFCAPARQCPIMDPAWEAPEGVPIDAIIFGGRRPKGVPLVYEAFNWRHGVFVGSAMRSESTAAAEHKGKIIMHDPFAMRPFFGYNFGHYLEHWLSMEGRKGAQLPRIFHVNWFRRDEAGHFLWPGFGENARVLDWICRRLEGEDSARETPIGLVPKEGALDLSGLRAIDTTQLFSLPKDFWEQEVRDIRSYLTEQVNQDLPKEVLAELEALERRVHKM

[4] = biological target: T3, PDE12 C108 (Q6L8Q7) (Homo sapiens, UniProt Q6L8Q7)
T3 sequence (Q6L8Q7 43-609): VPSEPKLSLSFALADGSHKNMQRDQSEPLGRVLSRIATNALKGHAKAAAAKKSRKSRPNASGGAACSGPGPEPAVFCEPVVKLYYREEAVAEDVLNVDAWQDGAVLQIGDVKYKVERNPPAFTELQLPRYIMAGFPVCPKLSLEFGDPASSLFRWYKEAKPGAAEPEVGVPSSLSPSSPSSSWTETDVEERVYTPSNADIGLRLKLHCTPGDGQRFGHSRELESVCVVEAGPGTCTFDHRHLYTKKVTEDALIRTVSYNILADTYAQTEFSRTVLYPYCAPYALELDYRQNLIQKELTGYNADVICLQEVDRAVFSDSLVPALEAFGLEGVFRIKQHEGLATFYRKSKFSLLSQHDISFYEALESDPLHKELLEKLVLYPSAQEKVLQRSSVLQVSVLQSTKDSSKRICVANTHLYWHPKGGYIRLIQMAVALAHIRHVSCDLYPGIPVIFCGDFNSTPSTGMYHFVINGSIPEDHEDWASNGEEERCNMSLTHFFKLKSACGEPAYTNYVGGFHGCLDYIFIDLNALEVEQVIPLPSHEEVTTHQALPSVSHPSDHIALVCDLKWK

SMILES | isoTOP-ABPP ratio (reactivity profile), O00170_C122 ([1]; 500 μm in-vitro ramos) | isoTOP-ABPP ratio (reactivity profile), O75874_C269 ([2]; 500 μm in-vitro ramos) | isoTOP-ABPP ratio (reactivity profile), Q16822_C306 ([3]; 500 μm in-vitro ramos_231) | isoTOP-ABPP ratio (reactivity profile), Q6L8Q7_C108 ([4]; 500 μm in-vitro ramos_231) | isoTOP-ABPP reactivity ratio, O00170_C122 ([1]; 500 μm, in-vitro_ramos) | isoTOP-ABPP reactivity ratio, Q16822_C306 ([3]; 500 μm, in-vitro_ramos) | isoTOP-ABPP reactivity ratio, O75874_C269 ([2]; 500 μm, in-vitro_ramos_231) | isoTOP-ABPP reactivity ratio, Q16822_C306 ([3]; 500 μm, in-vitro_ramos_231) | isoTOP-ABPP reactivity ratio, Q6L8Q7_C108 ([4]; 500 μm, in-vitro_ramos_231) | also measured
O=C(CCl)NCCc1c[nH]c2ccccc12 [compound 13] |  |  |  |  |  |  |  |  |  | isoTOP-ABPP ratio, O00170_C122 ([1]; 500 μM, invitro, ramos): 0.9; isoTOP-ABPP ratio, O75874_C269 ([2]; 500 μM, invitro, 231): 2.7; isoTOP-ABPP ratio, Q16822_C306 [3]; 231: 0.9; isoTOP-ABPP ratio, Q16822_C306 ([3]; ramos): 1.0; isoTOP-ABPP ratio, Q6L8Q7_C108 ([4]; 500 μM, invitro, ramos): 1.0
O=C(CCl)N1CCC(C(O)(c2ccccc2)c2ccccc2)CC1 [compound 20] | 2.2 | 0.6 | 2.5 | 1.6 |  |  |  |  |  | R value (DMSO/fragment) ([2]; 25 μM, endogenous IDH1, MDA-MB-231 proteome): 20; isoTOP-ABPP ratio (reactivity profile), Q16822_C306 ([3]; 500 μm in-vitro ramos): 1.6
N#C/C(=C\c1cc(C(F)(F)F)cc(C(F)(F)F)c1)C(N)=O [compound 23] | 1.4 | 1.1 | 3.0 | 1.0 |  |  |  |  |  | isoTOP-ABPP ratio (reactivity profile), O00170_C122 ([1]; 500 μm in-vitro ramos_231): 0.7; isoTOP-ABPP ratio (reactivity profile), O75874_C269 ([2]; 500 μm in-vitro ramos_231): 0.7
C=CC(=O)N(Cc1cccnc1)c1cc(C(F)(F)F)cc(C(F)(F)F)c1 [compound 31] |  |  |  |  | 0.6 | 1.2 | 0.4 | 1.9 | 2.0 | isoTOP-ABPP reactivity ratio, O75874_C269 ([2]; 500 μm, in-vitro_ramos): 0.7
C=CC(=O)Nc1cc(F)c(N2CCN(C(=O)OC(C)(C)C)CC2)c(F)c1 [compound 38] |  |  |  |  | 1.5 |  | 0.7 | 1.0 | 0.9 | isoTOP-ABPP reactivity ratio, O00170_C122 ([1]; 500 μm, in-vitro_ramos_231): 1.5; isoTOP-ABPP reactivity ratio, Q6L8Q7_C108 ([4]; 500 μm, in-vitro_ramos): 6.8
Cc1ccc(C=C(C#N)C(=O)NCCN2CCOCC2)cc1 [compound 41] |  |  |  |  | 1.0 | 1.0 | 0.8 | 1.2 | 1.3 | isoTOP-ABPP reactivity ratio, O00170_C122 ([1]; 500 μm, in-vitro_ramos_231): 1.1
O=C(CCl)N1CCc2cc(Br)ccc21 [compound 50] |  |  |  |  |  |  |  |  |  | isoTOP-ABPP reactivity profile ratio, O00170_C122 ([1]; 500 μm, in-vitro_ramos_231): 2.3; isoTOP-ABPP reactivity profile ratio, O75874_C269 ([2]; 500 μm, in-vitro_ramos_231): 20.0; isoTOP-ABPP reactivity profile ratio, Q16822_C306 ([3]; 500 μm, in-vitro_ramos_231): 2.7; isoTOP-ABPP reactivity profile ratio, Q6L8Q7_C108 ([4]; 500 μm, in-vitro_ramos_231): 1.8

Second part, led by results:

isoTOP-ABPP ratio (reactivity profile), O00170_C122 ([1]; 500 μm in-vitro ramos) | isoTOP-ABPP ratio (reactivity profile), O75874_C269 ([2]; 500 μm in-vitro ramos) | isoTOP-ABPP ratio (reactivity profile), Q16822_C306 ([3]; 500 μm in-vitro ramos_231) | isoTOP-ABPP ratio (reactivity profile), Q6L8Q7_C108 ([4]; 500 μm in-vitro ramos_231) | isoTOP-ABPP reactivity ratio, O00170_C122 ([1]; 500 μm, in-vitro_ramos) | isoTOP-ABPP reactivity ratio, Q16822_C306 ([3]; 500 μm, in-vitro_ramos) | isoTOP-ABPP reactivity ratio, O75874_C269 ([2]; 500 μm, in-vitro_ramos_231) | isoTOP-ABPP reactivity ratio, Q16822_C306 ([3]; 500 μm, in-vitro_ramos_231) | isoTOP-ABPP reactivity ratio, Q6L8Q7_C108 ([4]; 500 μm, in-vitro_ramos_231) | SMILES | also measured
1.2 |  | 1.1 | 1.0 |  |  |  |  |  | COc1ccccc1OCCNC(=O)CCl [compound 28] | isoTOP-ABPP ratio (reactivity profile), O00170_C122 ([1]; 500 μm in-vitro ramos_231): 0.9; isoTOP-ABPP ratio (reactivity profile), O75874_C269 ([2]; 500 μm in-vitro ramos_231): 1.1; isoTOP-ABPP ratio (reactivity profile), Q6L8Q7_C108 ([4]; 500 μm in-vitro ramos): 1.2
1.1 | 0.7 |  |  | 2.0 | 1.1 |  |  |  | CCN(CC)c1ccc(S(N)(=O)=O)cc1NC(=O)CCl [compound 30] | isoTOP-ABPP ratio (reactivity profile), Q16822_C306 ([3]; 500 μm in-vitro ramos): 1.2; isoTOP-ABPP ratio (reactivity profile), Q6L8Q7_C108 ([4]; 500 μm in-vitro ramos): 1.1; isoTOP-ABPP reactivity ratio, Q6L8Q7_C108 ([4]; 500 μm, in-vitro_ramos): 1.6
